# Patent publication US6831199B1, “Pyrimidine compounds and derivatives thereof” (G. D. Searle & Co., priority 1995, dated 2004)
# Counter-ions that a name gives are not always drawn.
# Experiments:
# [1] = biological target: T1, Human vitronectin receptor (αvβ3) (Homo sapiens, UniProt P05106+P06756); assay: Vitronectin adhesion assay (solid phase receptor assay, competition with biotinylated vitronectin); assay type: binding; settings: read-out: AvB3 IC50
# T1 construct: Human vitronectin receptor (αvβ3) was purified from human placenta; from tissue; host or cells: human placenta
# How it was run: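 Purified human αvβ3 coated overnight at 4 °C in TBS with 1.0 mM Ca++, Mg++, Mn++, pH 7.4; compounds (top final 1.0×10^−4 M) competed with 1 nM biotinylated vitronectin for 2 h at room temperature. Bound ligand detected by HRP anti-biotin/OPD at A450; values normalized to no-competitor controls, four-parameter curve fit.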
# [2] = test system: M21 human melanoma cells; assay: M21 melanoma cell adhesion assay (αvβ3-dependent adhesion to human fibrinogen-coated plates); assay type: cell-based; settings: Homo sapiens, M21; read-out: M21 Melanoma Cells IC50
# Procedure: M21 MELANOMA CELL ADHESION ASSASY
# This assay involves an αvβ3-dependent adhesion of M21 human melanoma cells to human fibrinogen-coated plastic tissue culture dishes.
# Fibrinogen was purified from human plasma. Fibronectin and plasminogen were eliminated from the preparation by passing the sample over gelatin-sepharose 4B and lysine-sepharose 4B resins, respectively. The fibrinogen is diluted to 10 μg/mL in coating buffer ([…] Tris-HCl, 150 mM NaCl, pH 7.4). 100 μL of diluted fibrinogen is added to each well of a 96-well Immulon 2 microtiter plate (Dynatech; Chantilly, Va.) and allowed to coat overnight at 4° C. Plates are blocked with 1% BSA (Miles/Pentex; Kankakee, Ill.) in adhesion buffer (Hank's balanced salt solution without Ca^++ or Mg^++ [HBSS−−], 50 mM Hepes, 1 mg/mL BSA, pH 7.4) for 1 hour at 37° C.
# M21 human melanoma cells were provided by Dr. J. Smith, La Jolla Cancer Research Institute. M21 cells are harvested from tissue culture flasks by washing with HBSS−− and adding cell dissociation solution (Sigma) and incubating for 5 minutes at 37° C. Harvested cells are washed 3 times with adhesion assay buffer containing 200 μM Mn^++. Cells are counted and suspended to a density of 2×10^6/mL in adhesion assay buffer containing 200 μM Mn^++. M21 cells are pre-incubated with antagonists of αvβ3 for 30 minutes at room temperature. Following the pre-incubation, the solutions containing a mixture of cells and antagonists are added to each well of the microtiter plate and allowed to bind for 30 minutes at 37° C.
# Following adhesion, plates are gently washed 3 times with 200 μL of wash buffer (50 mM Tris-HCl, 150 mM NaCl, pH 7.4) using large bore pipet tips. Plates are briefly blotted dry and 100 μL of cell lysis buffer (50 mM sodium acetate, pH 5.0, 0.5% Triton X-100, 0.3 mg/mL p-nitrophenyl phosphate [Sigma] is added to each well. Plates are incubated for 60 minutes at 37° C. and 50 μL of 1N NaOH is added to stop the reaction. The absorbance of the wells at […] is read using an automatic plate reader.
Structure (SMILES),IC50 [1],IC50 [2]
"Cc1ccc(C(=O)NCC(=O)NC(CC(=O)O)c2cccnc2)cc1NC(=N)N (racemic) [Example 83, (±)β-[[2-[[[3-[(aminoiminomethyl)amino]-4-methylphenyl]carbonyl]amino]acetyl]amino]pyridine-3-propanoic acid, bis(trifluoroacetate)salt]",3.39 nM,11 nM
"N=C(NCc1ccccc1)Nc1cccc(C(=O)NCC(=O)NC(CC(=O)O)c2cccnc2)c1 (racemic) [Example 24, (±)β-[[2-[[[3-[[imino[(phenylmethyl)amino]methyl]amino]phenyl]carbonyl]amino]acetyl]amino]pyridine-3-propanoic acid, bis(trifluoroacetate)salt]",0.91 nM,12.7 nM
"N=C(N)Nc1cccc(C(=O)NCC(=O)NC(CC(=O)O)c2ccccc2)c1 (racemic) [Example 4, (±)β-[[2-[[[3-[(aminoiminomethyl)amino]phenyl]carbonyl]amino]acetyl]amino]benzene-propanoic acid, trifluoroacetate salt]",3.17 nM,3.3 nM
"N=C(N)Nc1cccc(C(=O)NCC(=O)NC(CC(=O)O)c2cc(C(F)(F)F)cc(C(F)(F)F)c2)c1 (racemic) [Example 36, (±)β-[[2-[[[3-[(aminoiminomethyl)amino]phenyl]carbonyl]amino]acetyl]amino]-3,5-bis(trifluoromethyl)benzenepropanoic acid, trifluoroacetate salt]",14.6 nM,143 nM
